Experiments:
[1] = biological target: JAK2 (Homo sapiens (Human), UniProt O60674); test: Jak biochemical HTRF assay, JAK2; details: recombinant purified GST-tagged catalytic domain, HTRF format
From the text: (§1) Jak Biochemical HTRF Assay Protocol
(§2) Subsequent reagent additions employed an Agilent Bravo.

[2] = biological target: JAK1 (Homo sapiens (Human), UniProt P23458); test: Jak biochemical HTRF assay, JAK1; details: recombinant purified GST-tagged catalytic domain; HTRF format; [ATP] 31.8 μM
Sequence of JAK1 (P23458 875-1153): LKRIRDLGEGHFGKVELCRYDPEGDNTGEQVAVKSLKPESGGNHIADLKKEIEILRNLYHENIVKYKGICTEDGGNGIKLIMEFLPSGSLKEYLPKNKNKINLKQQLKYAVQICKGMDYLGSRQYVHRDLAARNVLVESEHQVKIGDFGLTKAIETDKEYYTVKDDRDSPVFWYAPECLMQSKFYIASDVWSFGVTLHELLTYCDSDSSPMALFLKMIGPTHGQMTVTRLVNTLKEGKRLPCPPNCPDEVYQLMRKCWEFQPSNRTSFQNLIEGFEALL
From the text: as §1, §2

Sequence of JAK2 (O60674 849-1124): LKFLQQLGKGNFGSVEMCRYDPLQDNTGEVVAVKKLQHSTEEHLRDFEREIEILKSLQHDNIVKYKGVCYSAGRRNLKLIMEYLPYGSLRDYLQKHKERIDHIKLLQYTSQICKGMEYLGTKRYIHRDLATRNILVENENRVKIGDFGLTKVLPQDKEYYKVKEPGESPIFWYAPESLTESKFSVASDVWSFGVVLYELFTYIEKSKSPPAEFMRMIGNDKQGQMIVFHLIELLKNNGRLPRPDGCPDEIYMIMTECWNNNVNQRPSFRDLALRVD

IC50 ([1]; [ATP] 8.5 μM) | IC50 [2] | IC50 ([1]; [ATP] […]) | SMILES
533 nM | 25 nM |  | CC(C)(O)C1CC(CN2CC[C@@H](C#N)[C@H](n3cc(C(N)=O)c(Nc4ccc(F)cc4)n3)C2)C1 (mixture of isomers) [Example 6-11, 1-[(3S,4R and 3R,4S)-4-cyano-1-{[3-(1-hydroxy-1-methylethyl)cyclobutyl]methyl}piperidin-3-yl]-3-[(4-fluorophenyl)amino]-1H-pyrazole-4-carboxamide]
> 1500 nM | 652 nM |  | N#C[C@@H]1CN(C(=O)OC2Cc3ccccc3C2)CC[C@@H]1n1cc(C(N)=O)c(Nc2ccc(F)cc2)n1 (racemic) [Example 5-42, 2,3-dihydro-1H-inden-2-yl (3R,4S and 3S,4R)-4-{4-carbamoyl-3-[(4-fluorophenyl)amino]-1H-pyrazol-1-yl}-3-cyanopiperidine-1-carboxylate]
104 nM | 5 nM |  | Cc1ncc(CN2CC[C@@H](n3cc(C(N)=O)c(Nc4ccc(F)cc4)n3)[C@H](C#N)C2)s1 (racemic) [Example 6-37, 1-{(3R,4R and 3S,4S)-3-cyano-1-[(2-methyl-1,3-thiazol-5-yl)methyl]piperidin-4-yl}-3-[(4-fluorophenyl)amino]-1H-pyrazole-4-carboxamide]
98 nM | 6 nM |  | CC1=NOC(CN2CC[C@@H](C#N)[C@H](n3cc(C(N)=O)c(Nc4ccc(F)cc4)n3)C2)C1 (mixture of isomers) [Example 6-20, 1-{(3S,4R and 3R,4S)-4-cyano-1-[(3-methyl-4,5-dihydroisoxazol-5-yI)methyl]piperidin-3-yl}-3-[(4-fluorophenyl)amino]-1H-pyrazole-4-carboxamide]
39 nM | 6 nM |  | CC(C)(C)OC(=O)N1CC[C@H](C#N)C(n2cc(C(N)=O)c(Nc3ccc(F)cc3)n2)C1 (mixture of isomers) [Example 2-1, tert-Butyl(3R,4S and 3S,4R)-3-{4-carbamoyl-3-[(4-fluorophenyl)amino]-1H-pyrazol-1-yl}-4-cyanopiperidine-1-carboxylate]
 | 27 nM | 383 nM | CC(C)(COC(=O)N1CC[C@@H](C#N)[C@H](n2cc(C(N)=O)c(Nc3ccc(F)cc3)n2)C1)n1cccn1 (mixture of isomers) [Example 5-92, 2-methyl-2-(1H-pyrazol-1-yl)propyl (3S,4Rand 3R, 4S)-3-{4-carbamoyl-3-[(4-fluorophenyl)amino]-1H-pyrazol-1-yl}-4-cyanopiperidine-1-carboxylate]
52 nM | 7 nM |  | N#C[C@H]1CCOC[C@@H]1n1cc(C(N)=O)c(Nc2ccc(OC(F)(F)F)cc2)n1 (single isomer, unassigned) [Example 9-20, 1-[(3R,4S or 3S,4R)-4-cyanotetrahydro-2H-pyran-3-yl]-3-{[4-(trifluoromethoxy)phenyl]amino}-1H-pyrazole-4-carboxamide]
> 1500 nM | 88 nM |  | CN(C)CC(C)(C)COC(=O)N1CC[C@@H](n2cc(C(N)=O)c(Nc3ccc(F)cc3)n2)[C@H](C#N)C1 (racemic) [Example 5-21, 3-(dimethylamino)-2,2-dimethylpropyl (3R,4R and 3S,4S)-4-{4-carbamoyl-3-[(4-fluorophenyl)amino]-1H-pyrazol-1-yl}-3-cyanopiperidine-1-carboxylate]
> 1500 nM | 58 nM |  | CN1CCC(OC(=O)N2CC[C@@H](n3cc(C(N)=O)c(Nc4ccc(F)cc4)n3)[C@H](C#N)C2)CC1 (racemic) [Example 5-26, 1-methylpiperidin-4-yl (3R,4R and 3S,4S)-4-{4-carbamoyl-3-[(4-fluorophenyl)amino]-1H-pyrazol-1-yl}-3-cyanopiperidine-1-carboxylate]
 | 24 nM | 496 nM | CC(C)(C)OC(=O)N1CC[C@@H](n2cc(C(N)=O)c(Nc3ccccc3)n2)[C@H](C#N)C1 (mixture of isomers) [Example 1-2, tert-butyl(3S,4S and 3R,4R)-4-[4-(aminocarbonyl)-3-anilino-1H-pyrazol-1-yl]-3-cyanopiperidine-1-carboxylate]
125 nM | 13 nM |  | N#C[C@H]1CCNCC1n1cc(C(N)=O)c(Nc2ccc(F)cc2)n1 (mixture of isomers) [Example 3-1, 1-[(3R,4S and 3S,4R)-4-cyanopiperidin-3-yl]-3-[(4-fluorophenyl)amino]-1H-pyrazole-4-carboxamide]
7 nM | 0.9 nM |  | N#C[C@@H]1CCOC[C@H]1n1cc(C(N)=O)c(Nc2cncc(F)c2)n1 (single isomer, unassigned) [Example 9-31, 1-[(3S,4R or 3R,4S)-4-cyanotetrahydro-2H-pyran-3-yl]-3-[(5-fluoropyridin-3-yl)amino]-1H-pyrazole-4-carboxamide]
21 nM | 6 nM |  | CC1(c2ccc(Nc3nn([C@@H]4COCC[C@H]4C#N)cc3C(N)=O)cc2)COC1 (single isomer, unassigned) [Example 9-26, 1-[(3S,4R or 3R,4S)-4-cyanotetrahydro-2H-pyran-3-yl]-3-{[4-(3-methyloxetan-3-yl)phenyl]amino}1H-pyrazole-4-carboxamide]
 | 0.5 nM | 6 nM | C[C@]1(C#N)CS(=O)(=O)CC1n1cc(C(N)=O)c(Nc2ccc(F)cc2)n1 (stereo partly drawn) [Example 13-5, 1-((3S,4R or 3R4S)-4-cyano-4-methyl-1,1-dioxidotetrahydrothiophen-3-yl)-3-((4-fluorophenyl)amino)-1H-pyrazole-4-carboxamide]
20 nM | 1 nM |  | Cc1c(CN2CC[C@@H](C#N)[C@H](n3cc(C(N)=O)c(Nc4ccc(F)cc4)n3)C2)cnn1C (racemic) [Example 6-15, 1-{(3S,4R and 3R,4S)-4-cyano-1-[(1,5-dimethyl-1H-pyrazol-4-yl)methyl]piperidin-3-yl}-3-[(4-fluorophenyl)amino]-1H-pyrazole-4-carboxamide]

The next lines start with the compound.

SMILES | IC50 ([1]; [ATP] 8.5 μM) | IC50 [2] | IC50 ([1]; [ATP] […])
Cc1cc(CN2CC[C@@H](n3cc(C(N)=O)c(Nc4ccc(F)cc4)n3)[C@H](C#N)C2)no1 (racemic) [Example 6-33, 1-{(3R,4R and 3S,4S)-3-cyano-1-[(5-methylisoxazol-3-yl)methyl]piperidin-4-yl}-3-[(4-fluorophenyl)amino]-1H-pyrazole-4-carboxamide] | 92 nM | 7 nM | 
N#C[C@H]1CCOC[C@@H]1n1cc(C(N)=O)c(Nc2cncc(F)c2)n1 (single isomer, unassigned) [Example 9-30, 1-[(3R,4S or 3S,4R)-4-cyanotetrahydro-2H-pyran-3-yl]-3-[(5-fluoropyridin-3-yl)amino]-1H-pyrazole-4-carboxamide] | 306 nM | 83 nM | 
N#C[C@@H]1CN(C(=O)OC(CF)CF)CC[C@@H]1n1cc(C(N)=O)c(Nc2ccc(F)cc2)n1 (racemic) [Example 5-47, 2-fluoro-1-(fluoromethyl)ethyl (3R,4S and 3S,4R)-4-{4-carbamoyl-3-[(4-fluorophenyl)amino]-1H-pyrazol-1-yl}-3-cyanopiperidine-1-carboxylate] | 1340 nM | 121 nM | 
N#C[C@@H]1CN(C(=O)OCC(F)(F)CO)CC[C@H]1n1cc(C(N)=O)c(Nc2ccc(F)cc2)n1 (racemic) [Example 5-20, 2,2-difluoro-3-hydroxypropyl (3R,4R and 3S,4S)-4-{4-carbamoyl-3-[(4-fluorophenyl)amino]-1H-pyrazol-1-yl}-3-cyanopiperidine-1-carboxylate] | 106 nM | 5 nM | 
N#C[C@@H]1CCN(Cc2ccc(F)cn2)C[C@H]1n1cc(C(N)=O)c(Nc2ccc(F)cc2)n1 (racemic) [Example 6-16, 1-{(3S,4R and 3R,4S)-4-cyano-1-[(5-fluoropyridin-2-yl)methyl]piperidin-3-yl}-3-[(4-fluorophenyl)amino]-1H-pyrazole-4-carboxamide] | 14 nM | 0.7 nM | 
Cn1nccc1CN1CC[C@@H](C#N)[C@H](n2cc(C(N)=O)c(Nc3ccc(F)cc3)n2)C1 (racemic) [Example 6-13, 1-{(3S,4R and 3R,4S)-4-cyano-1-[(1-methyl-1H-pyrazol-5-yl)methyl]piperidin-3-yl}-3-[(4-fluorophenyl)amino]-1H-pyrazole-4-carboxamide] | 20 nM | 2 nM | 
CC(C)(C)OC(=O)N1CC[C@H](C#N)C(n2cc(C(N)=O)c(Nc3ccccc3)n2)C1 (mixture of isomers) [Example 1-3, tert-butyl(3R,4S and 3S,4R)-3-[4-(aminocarbonyl)-3-anilino-1H-pyrazol-1-yl]-4-cyanopiperidine-1-carboxylate] | 41 nM | 5 nM | 
N#C[C@@H]1CN(C(=O)OCC2(N)CC2)CC[C@H]1n1cc(C(N)=O)c(Nc2ccc(F)cc2)n1 (racemic) [Example 5-8, (1-aminocyclopropyl)methyl (3R,4R and 3S,4S)-4-{4-carbamoyl-3-[(4-fluorophenyl)amino]-lH-pyrazol-1-yl}-3-cyanopiperidine-1-carboxylate] | 703 nM | 13 nM | 
CC(OC(=O)N1CC[C@@H](n2cc(C(N)=O)c(Nc3ccc(F)cc3)n2)[C@H](C#N)C1)C1CC1 (mixture of isomers) [Example 5-35, 1-cyclopropylethyl (3R,4R and 3S,4S)-4-{4-carbamoyl-3-[(4-fluorophenyl)amino]-1H-pyrazol-1-yl}-3-cyanopiperidine-1-carboxylate] | 468 nM | 19 nM | 
N#C[C@@H]1CCN(Cc2cocn2)C[C@H]1n1cc(C(N)=O)c(Nc2ccc(F)cc2)n1 (racemic) [Example 6-4, 1-[(3S,4R and 3R,4S)-4-cyano-1-(1,3-oxazol-4-ylmethyl)piperidin-3-yl]-3-[(4-fluorophenyl)amino]-1H-pyrazole-4-carboxamide] | 18 nM | 2 nM | 
CN1CCC(COC(=O)N2CC[C@@H](n3cc(C(N)=O)c(Nc4ccc(F)cc4)n3)[C@H](C#N)C2)CC1 (racemic) [Example 5-7, (1-methylpiperidin-4-yl)methyl (3R,4R and 3S,4S)-4-{4-carbamoyl-3-[(4-fluorophenyl)amino]-1H-pyrazol-1-yl}-3-cyanopiperidine-1-carboxylate] | 1090 nM | 23 nM | 
